Experimental data reported in ChEMBL document CHEMBL2086230, “Comparison of the cytotoxic effects of enantiopure PPAPs, including nemorosone and clusianone” (Bioorg Med Chem Lett, 2012).

What was measured:
Assay type in all cases: functional, cell-based
[1] = test system: HeLa; assay: Cytotoxicity against human HeLa cells after 72 hrs by resazurin assay
[2] = test system: MCF7; assay: Cytotoxicity against human MCF7 cells after 72 hrs by resazurin assay
[3] = test system: MIA PaCa-2; assay: Cytotoxicity against human MIAPaCa2 cells after 72 hrs by resazurin assay

## CC(C)=CC[C@H]1C[C@]2(CC=C(C)C)C(=O)[C@@](CC=C(C)C)(C(=O)C(C(=O)c3ccccc3)=C2O)C1(C)C (stereo in doubt; (-)-4) [6-EPI-CLUSIANONE]
[1]; hela
  IC50: 3 µM
[2]; mcf7
  IC50: 5.7 µM
[3]; mia paca-2
  IC50: 3.8 µM

## CC(C)=CCC1=C(O)C2(CC=C(C)C)CC(CC=C(C)C)C(C)(C)C(C(=O)c3ccccc3)(C1=O)C2=O (single isomer, unassigned; (+))
[1]; Homo sapiens, HeLa, 72 h
  IC50: 3.9 µM
[2]; Homo sapiens, MCF7, 72 h
  IC50: 6.5 µM
[3]; Homo sapiens, MIA PaCa-2, 72 h
  IC50: 3.4 µM

## CC(C)=CCC1=C(O)C2(C(=O)c3ccccc3)CC(CC=C(C)C)C(C)(C)C(CC=C(C)C)(C1=O)C2=O (stereo in doubt; (-)-5)
[1]; hela
  IC50: 10.9 µM
[2]; mcf7
  IC50: 10.9 µM
[3]; mia paca-2
  IC50: 8.6 µM

## CC(C)=CCC1=C(O)[C@@]2(C(=O)c3ccccc3)C(=O)[C@](CC=C(C)C)(C[C@H](CC=C(C)C)C2(C)C)C1=O
[1]; Homo sapiens, HeLa, 72 h
  IC50: 2.9 µM
[2]; Homo sapiens, MCF7, 72 h
  IC50: 5.2 µM
[3]; Homo sapiens, MIA PaCa-2, 72 h
  IC50: 2.4 µM

## CC(C)=CC[C@H]1C[C@]2(CC=C(C)C)C(=O)[C@@](CC=C(C)C)(C(=O)C(C(=O)c3ccccc3)=C2O)C1(C)C (stereo in doubt; (+)-4) [6-EPI-CLUSIANONE]
[1]; Homo sapiens, HeLa, 72 h
  IC50: 5.8 µM
[2]; Homo sapiens, MCF7, 72 h
  IC50: 8.3 µM
[3]; Homo sapiens, MIA PaCa-2, 72 h
  IC50: 5.2 µM

## CC(C)=CCC1=C(O)C2(CC=C(C)C)CC(CC=C(C)C)C(C)(C)C(C(=O)c3ccccc3)(C1=O)C2=O (stereo in doubt; (-)-3)
[1]; hela
  IC50: 3.4 µM
[2]; mcf7
  IC50: 8 µM
[3]; mia paca-2
  IC50: 3.5 µM

## CC(C)=CCC1=C(O)C2(C(=O)c3ccccc3)CC(CC=C(C)C)C(C)(C)C(CC=C(C)C)(C1=O)C2=O (single isomer, unassigned; (+))
[1]; Homo sapiens, HeLa, 72 h
  IC50: 10.1 µM
[2]; Homo sapiens, MCF7, 72 h
  IC50: 18.9 µM
[3]; Homo sapiens, MIA PaCa-2, 72 h
  IC50: 11.3 µM

## Nc1ccn([C@@H]2O[C@H](CO)[C@@H](O)C2(F)F)c(=O)n1 [GEMCITABINE]
[1]; Homo sapiens, HeLa, 72 h
  IC50: 0.05 µM
[2]; Homo sapiens, MCF7, 72 h
  IC50: 0.06 µM
[3]; Homo sapiens, MIA PaCa-2, 72 h
  IC50: 0.06 µM
